Test results from patent publication US8461193B2, “Substituted pyrrolo-pyrazole derivatives active as kinase inhibitors” (Nerviano Medical Sciences S.R.L., priority 2005, dated 2013).
Where two headings read alike, the source gives them in different places.

Columns and labels:
IGF1R [1] = target: T1, IGF1R (Homo sapiens, UniProt P08069); assay: Western blot analysis of receptor phosphorylation following stimulation with IGF-1 in MCF-7 human breast cancer cells; format: cell-based; parameters: endogenous in cells; host or cells: MCF-7 (ATCC# HTB-22); conditions: starved MCF-7 cells, increasing concentrations of compound prior to 10 nM IGF1
Method: Cell-Based Assays for Inhibitors of IGF-1R Kinase Activity Western Blot Analysis of Receptor Phosphorylation Following Stimulation with IGF-1 in MCF-7 Human Breast Cancer Cells
MCF-7 cells (ATCC# HTB-22) were seeded in 12-well tissue culture plates at 2×10^5 cells/well in E-MEM medium (MEM+Earle's BSS+2 mM glutamine+0.1 mM non-essential amino acids)+10% FCS, and incubated overnight at 37° C., 5% CO2, 100% relative humidity. Cells were then starved by replacing E-MEM+10% FCS with E-MEM+0.1% BSA, and incubating overnight. After this incubation, wells were treated with desired concentrations of compound for 1 hour at 37° C., and were then stimulated with 10 nM recombinant human IGF-1 (Invitrogen, Carlsbad, Calif., USA) for 10 minutes at 37° C. […] Cell lysates were cleared by centrifugation at 10,000×g for 5 minutes, and 10 microg/lane of cleared lysate protein were run on NuPAGE gels (NuPAGE 4-12% 10-lane Bis-Tris gels, Invitrogen) with MOPS running buffer, then transferred onto Hybond-ECL nitrocellulose filters (Amersham Biosciences, Little Chalfont, Buckinghamshire, UK) using Mini PROTEAN II chambers (Bio-Rad Laboratories, Hercules, Calif., USA). […] In either case, filters were then washed for 30 minutes with several changes of TBS+0.15% Tween 20, and incubated for 1 hour in washing buffer containing 1/5000 dilution of horseradish peroxidase conjugated anti-rabbit IgG (Amersham, product #NA934), then were washed again and developed using the ECL chemiluminescence system (Amersham) according to manufacturer's recommendations. Unless otherwise stated, reagents used were from Sigma-Aldrich, St. Louis, Mo., USA.
Target sequence in this assay (P08069 31-1367): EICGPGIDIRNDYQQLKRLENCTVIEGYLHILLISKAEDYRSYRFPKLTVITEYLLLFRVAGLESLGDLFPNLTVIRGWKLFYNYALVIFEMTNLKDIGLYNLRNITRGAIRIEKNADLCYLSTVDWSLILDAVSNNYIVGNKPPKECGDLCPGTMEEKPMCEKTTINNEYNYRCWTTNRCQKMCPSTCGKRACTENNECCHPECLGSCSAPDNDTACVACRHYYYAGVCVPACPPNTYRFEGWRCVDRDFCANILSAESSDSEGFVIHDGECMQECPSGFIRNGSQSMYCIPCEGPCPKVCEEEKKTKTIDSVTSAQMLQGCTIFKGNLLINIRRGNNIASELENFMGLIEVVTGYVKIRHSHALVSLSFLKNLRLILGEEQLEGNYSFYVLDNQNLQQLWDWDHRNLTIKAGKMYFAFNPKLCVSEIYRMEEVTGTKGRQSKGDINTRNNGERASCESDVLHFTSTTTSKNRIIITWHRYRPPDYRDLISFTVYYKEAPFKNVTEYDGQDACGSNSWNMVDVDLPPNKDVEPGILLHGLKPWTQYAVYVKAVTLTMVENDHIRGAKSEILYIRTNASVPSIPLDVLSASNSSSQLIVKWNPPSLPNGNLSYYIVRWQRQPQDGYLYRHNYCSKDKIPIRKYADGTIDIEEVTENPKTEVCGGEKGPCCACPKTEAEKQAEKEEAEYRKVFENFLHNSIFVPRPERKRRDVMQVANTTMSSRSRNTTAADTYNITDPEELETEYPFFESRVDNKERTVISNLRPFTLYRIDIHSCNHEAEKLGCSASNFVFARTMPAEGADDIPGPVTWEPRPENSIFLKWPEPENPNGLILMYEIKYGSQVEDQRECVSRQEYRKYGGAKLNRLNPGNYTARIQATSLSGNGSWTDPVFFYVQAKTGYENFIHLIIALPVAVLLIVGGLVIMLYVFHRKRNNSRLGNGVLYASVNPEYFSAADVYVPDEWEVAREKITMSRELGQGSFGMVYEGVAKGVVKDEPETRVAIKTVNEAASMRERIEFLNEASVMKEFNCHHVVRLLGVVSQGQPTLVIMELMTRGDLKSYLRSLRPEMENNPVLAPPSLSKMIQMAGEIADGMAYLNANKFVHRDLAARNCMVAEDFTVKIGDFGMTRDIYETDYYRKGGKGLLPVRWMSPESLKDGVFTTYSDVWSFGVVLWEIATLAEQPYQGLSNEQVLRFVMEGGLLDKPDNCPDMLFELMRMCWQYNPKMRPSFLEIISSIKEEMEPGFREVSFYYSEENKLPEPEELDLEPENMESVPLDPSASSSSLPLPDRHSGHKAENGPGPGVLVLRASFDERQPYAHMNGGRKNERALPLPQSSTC

IGF1R [2] = target: T1, IGF1R; assay: Biochemical assay for inhibitors of IGF-1R kinase activity (trans-phosphorylation assay, robotized Dowex assay); parameters: amino acid residues 960-1367 of precursor protein; made in house; host or cells: H5 insect cells (baculovirus; virus made in Sf21 cells)
Method: ID NO: 2). […] The inhibitory activity of putative kinase inhibitors and the potency of selected compounds were determined using a trans-phosphorylation assay.
Target sequence in this assay (P08069 960-1367): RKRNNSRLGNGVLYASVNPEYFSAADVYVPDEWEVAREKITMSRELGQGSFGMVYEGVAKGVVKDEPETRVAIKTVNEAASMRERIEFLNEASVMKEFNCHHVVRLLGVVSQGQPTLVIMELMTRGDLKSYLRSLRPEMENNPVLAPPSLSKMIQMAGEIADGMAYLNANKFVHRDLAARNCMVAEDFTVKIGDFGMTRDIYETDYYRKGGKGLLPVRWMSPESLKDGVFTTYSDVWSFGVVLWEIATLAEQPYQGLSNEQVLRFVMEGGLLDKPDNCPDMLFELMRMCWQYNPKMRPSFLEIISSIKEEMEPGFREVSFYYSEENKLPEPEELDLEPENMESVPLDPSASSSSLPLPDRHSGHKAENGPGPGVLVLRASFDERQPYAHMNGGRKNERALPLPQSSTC

[3] = tested on: IGF1-induced S6 phosphorylation; assay: Growth factor induced S6 ribosomal protein phosphorylation in primary human fibroblasts; format: cell-based; conditions: normal human dermal fibroblasts (NHDF), stimulated with 10 nM IGF-1; read-out: Inhibition of IGF1-induced S6 phosphorylation IC50
Method: Growth Factor Induced S6 Ribosomal Protein Phosphorylation in Primary Human Fibroblasts.
Phosphorylation of S6 ribosomal protein in response to growth factor stimulation of normal human dermal fibroblasts (NHDF) was used to assess compound potency in inhibiting IGF-1 induced signal transduction in cells, and selectivity towards EGF and PDGF stimulus. NHDF cells obtained from PromoCell (Heidelberg, Germany), were maintained at 37° C. in a humidified atmosphere with 5% CO2 in complete Fibroblast Growth Medium (PromoCell). For assay, NHDF were seeded in 384-well tissue culture plates (clear- and flat-bottomed black plates; Matrix Technologies Inc., Hudson, N.H., USA) at a density of 5000 cells/well in serum-free medium containing 0.1% bovine serum albumin (BSA) and incubated for 5 days. Starved cells were treated for 1 hour with desired doses of compounds and then stimulated for a further 2 hours with either 10 nM IGF-1 (Invitrogen Corp., CA, USA), 10 nM EGF (Gibco BRL, USA) or 1 nM PDGF-B/B (Roche Diagnostics GmbH, Germany). Cells were then fixed in PBS/3.7% paraformaldehyde for 20 minutes at room temperature, washed ×2 with PBS, and permeabilized with PBS/0.3% Triton X-100 for 15 minutes. Wells were then saturated with PBS/1% non-fat dry milk (Bio-Rad Laboratories, Hercules, Calif., USA) for 1 hour, and then probed for 1 hour at 37° C. with anti-phospho-S6 (Ser 235/236) antibody (Cell Signaling Technology, Beverly, Mass., USA, cat. #2211) at 1/200 dilution in PBS/1% milk/0.3% Tween 20. […] Fluorescence images in the DAPI and Cy5™ channels were automatically acquired, stored and analysed using a Cellomics ArrayScan™ IV instrument (Cellomics, Pittsburgh, USA); the Cellomics Cytotoxicity Algorithm was used to quantify cytoplasmic fluorescence associated with phospho-S6 (Cy5™ signal parameter: “Mean Lyso Mass-pH”) for each cell in 10 fields/well, and eventually expressed as a mean population value. […]

[4] = 6 nM enzyme, 6 microM ATP, 10 microM peptide substrate, read-out: IGF1R IC50 (μM) Biochemical assay

Compound: CN1CCN(c2ccc(C(=O)Nc3n[nH]c4c3CN(S(=O)(=O)c3cc(F)cc(F)c3)C4(C)C)c(NC(=O)c3cc[nH]c3)c2)CC1 [Compound 11, 1H-pyrrole-3-carboxylic acid [2-[5-(3,5-difluoro-benzenesulfonyl)-6,6-dimethyl-1,4,5,6-tetrahydro-pyrrolo[3,4-c]pyrazol-3-ylcarbamoyl]-5-(4-methyl-piperazin-1-yl)-phenyl]-amide]
- inhibition of IGF1-induced IGF1R auto-phosphorylation (pIGF1R band, FIG. 1) (IGF1R [1]): inhibition of IGF1-induced IGF1R auto-phosphorylation
- IC50 (IGF1R [2]): 0.09 µM
- IC50 [3]: 300 nM

Compound: CC(C)CNc1cc(N2CCN(C)CC2)ccc1C(=O)Nc1n[nH]c2c1CN(S(=O)(=O)c1cc(F)cc(F)c1)C2(C)C.Cl [Compound 90, N-[5-(3,5-Difluoro-benzenesulfonyl)-6,6-dimethyl-1,4,5,6-tetrahydro-pyrrolo[3,4-c]pyrazol-3-yl]-2-isobutylamino-4-(4-methyl-piperazin-1-yl)-benzamide hydrochloride]
- inhibition of IGF1-induced IGF1R auto-phosphorylation (pIGF1R band, FIG. 1) (IGF1R [1]): inhibition of IGF1-induced IGF1R auto-phosphorylation
- IC50 (IGF1R [2]; [4]): 0.46 µM
- IC50 [3]: 5300 nM

Compound: CN1CCN(c2ccc(C(=O)Nc3n[nH]c4c3CN(S(=O)(=O)c3cc(F)cc(F)c3)C4(C)C)c(NC(=O)[C@@H]3CCCO3)c2)CC1 [Compound 1, (S)-Tetrahydro-furan-2-carboxylic acid [2-[5-(3,5-difluoro-benzenesulfonyl)-6,6-dimethyl-1,4,5,6-tetrahydro-pyrrolo[3,4-c]pyrazol-3-ylcarbamoyl]-5-(4-methyl-piperazin-1-yl)-phenyl]-amide]
- inhibition of IGF1-induced IGF1R auto-phosphorylation (pIGF1R band, FIG. 1) (IGF1R [1]): inhibition of IGF1-induced IGF1R auto-phosphorylation
- IC50 (IGF1R [2]; [4]): 0.17 µM
- IC50 [3]: 740 nM
